Reference: the supplement of paper PMC13380429

Legend:
U2OS [1] = test: drug sensitivity score (DSS) for viability; higher = more toxic; extreme values may be limits of the assay; conditions: 72 h
Caco-2 [2] = test: as above; conditions: 72 h
HepG2 [3] = test: as above; conditions: 72 h
Vero E6 [4] = test: as above; conditions: 72 h
[5] = system: A549-ACE2 infected with SARS-CoV-2; test: SARS-CoV-2 infection rate relative to DMSO; higher = more infection; conditions: 24 h
[6] = system: A549-ACE2 infected with SARS-CoV-2; test: cell count relative to DMSO; higher = less toxic; conditions: 24 h
[7] = system: A549-ACE2 infected with SARS-CoV-2; test: morphology score (similarity to uninfected cells); higher = more like uninfected cells; conditions: 24 h
U2OS [8] = test: relative viability EC50 (midpoint between 100% and the lowest measured viability); higher = less toxic; conditions: 72 h
Caco-2 [9] = test: as above; conditions: 72 h
HepG2 [10] = test: as above; conditions: 72 h
Vero E6 [11] = test: as above; conditions: 72 h
A549-ACE2 [12] = test: drug-induced phospholipidosis relative to tamoxifen; higher = more phospholipidosis
U2OS [13] = test: cell viability relative to DMSO; higher = less toxic; conditions: 72 h
Caco-2 [14] = test: as above; conditions: 72 h
HepG2 [15] = test: as above; conditions: 72 h
Vero E6 [16] = test: as above; conditions: 72 h
A549-ACE2 [17] = test: phospholipidosis EC50; higher = less potent phospholipidosis inducer

N=C(N)c1cc2ccc(OC(=O)c3cccs3)cc2s1 [BCX-1470]
Conditions	drug sensitivity score	relative viability EC50 [µM]
Caco-2 [2]	0	–
Caco-2 [9]	–	> 10
HepG2 [3]	4.6	–
HepG2 [10]	–	3.32
U2OS [1]	0	–
U2OS [8]	–	> 10
Vero E6 [4]	0	–
Vero E6 [11]	–	> 10

Conditions	SARS-CoV-2 infection rate, [5] [%]	cell count, [6] [%]	cell viability, Caco-2 [14] [%]	cell viability, HepG2 [15] [%]	cell viability, U2OS [13] [%]	cell viability, Vero E6 [16] [%]	morphology score, [7]
1 nM	–	–	97.9	112	100	97	–
10 nM	–	–	96.1	100	100	95.2	–
100 nM	–	–	95.5	104	98.4	92.8	–
0.3 µM	97	102	–	–	–	–	0.05
1000 nM	–	–	96.5	102	95.9	98.2	–
3 µM	99	99	–	–	–	–	-0.11
10 µM	54	95	–	–	–	–	0.59
10000 nM	–	–	107	13.1	101	96.2	–
30 µM	22	52	–	–	–	–	0.39

drug-induced phospholipidosis [%], A549-ACE2 [12]
Conditions	0.3 µM	0.833333 µM	3.33333 µM	6.66667 µM	10 µM
24 h	1.95	3.92	0.54	7.05	10.8
48 h	1.86	-0.27	-2.94	10.7	17.1
72 h	0.245	-2.66	-0.938	1.04	8.25

Cc1cccc(Nc2nc(-c3ccncc3)cs2)c1
Conditions	drug sensitivity score	relative viability EC50 [µM]
Caco-2 [2]	0.3	–
Caco-2 [9]	–	> 10
HepG2 [3]	3.7	–
HepG2 [10]	–	2.22
U2OS [1]	0	–
U2OS [8]	–	> 10
Vero E6 [4]	2.1	–

Conditions	SARS-CoV-2 infection rate [%]	cell count [%]	cell viability [%]	morphology score	phospholipidosis EC50 [µM]
A549-ACE2 [17], 24 h	–	–	–	–	2.94
A549-ACE2 [17], 48 h	–	–	–	–	2.72
A549-ACE2 [17], 72 h	–	–	–	–	3.3
Caco-2 [14], 1 nM	–	–	102	–	–
Caco-2 [14], 10 nM	–	–	111	–	–
Caco-2 [14], 100 nM	–	–	97.4	–	–
Caco-2 [14], 1000 nM	–	–	98	–	–
Caco-2 [14], 10000 nM	–	–	85.8	–	–
HepG2 [15], 1 nM	–	–	104	–	–
HepG2 [15], 10 nM	–	–	108	–	–
HepG2 [15], 100 nM	–	–	97.2	–	–
HepG2 [15], 1000 nM	–	–	94.1	–	–
HepG2 [15], 10000 nM	–	–	48.5	–	–
U2OS [13], 1 nM	–	–	99.2	–	–
U2OS [13], 10 nM	–	–	98.5	–	–
U2OS [13], 100 nM	–	–	95.8	–	–
U2OS [13], 1000 nM	–	–	98.5	–	–
U2OS [13], 10000 nM	–	–	93.6	–	–
Vero E6 [16], 1 nM	–	–	95.5	–	–
Vero E6 [16], 10 nM	–	–	111	–	–
Vero E6 [16], 100 nM	–	–	99	–	–
Vero E6 [16], 1000 nM	–	–	94.9	–	–
Vero E6 [16], 10000 nM	–	–	70.6	–	–
[5], 0.1 µM	92	–	–	–	–
[5], 0.3 µM	91	–	–	–	–
[5], 1 µM	83	–	–	–	–
[5], 3 µM	50	–	–	–	–
[6], 0.1 µM	–	108	–	–	–
[6], 0.3 µM	–	107	–	–	–
[6], 1 µM	–	110	–	–	–
[6], 3 µM	–	106	–	–	–
[7], 0.1 µM	–	–	–	0.25	–
[7], 0.3 µM	–	–	–	0.02	–
[7], 1 µM	–	–	–	0.28	–
[7], 3 µM	–	–	–	0.31	–

drug-induced phospholipidosis [%], A549-ACE2 [12]
Conditions	0.3 µM	0.833333 µM	3.33333 µM	6.66667 µM	10 µM	30 µM
24 h	2.6	8.64	73.8	102	110	57.3
48 h	5.9	9.76	87.3	116	123	69.6
72 h	6.14	9.12	70	125	120	–
